Reference: patent US12433889B2 (priority 2021, dated 2025)
Values after ≈ are worked out from the molar mass of the structure shown.

Columns and labels:
[1] = test system: M. abscessus B15029863; assay: MIC by microbroth dilution, with and without CF sputum; type: cell-based; details: Mycobacteroides abscessus
[2] = test system: M. avium B18101968; assay: as above; type: cell-based; details: Mycobacterium avium
[3] = test system: M. Chimaera CIP 107892; assay: as above; type: cell-based; details: Mycobacterium intracellulare
[4] = test system: M. abscessus B18104072; assay: as above; type: cell-based; details: Mycobacteroides abscessus
[5] = test system: M. abscessus B12052284; assay: as above; type: cell-based; details: Mycobacteroides abscessus
[6] = test system: M. intracellulare DSM 43223; assay: as above; type: cell-based; details: Mycobacterium intracellulare
[7] = humans, microcrystalline suspension in an oil-wax base; cited from earlier work
[8] = BCS class II; cited from earlier work
[9] = test system: M. avium ATCC 700898; assay: MIC by microbroth dilution, with and without CF sputum; type: cell-based; details: Mycobacterium avium
[10] = test system: M. abscessus CIP104536; assay: as above; type: cell-based; details: Mycobacteroides abscessus

Work on `CC(C)/N=c1\cc2n(-c3ccc(Cl)cc3)c3ccccc3nc-2cc1Nc1ccc(Cl)cc1` [Clofazimine, clofazimine] yielded an MIC ([1]; B15029863, + SP (10% CF sputum)) of over 2 mg/L, an MIC ([1]; B15029863, absence of sputum) of 2 mg/L (≈ 4.22 µM) and an MIC ([2]; B18101968, + SP (10% CF sputum)) of over 2 mg/L. The MIC ([2]; B18101968, absence of sputum) was 0.5 mg/L (≈ 1.06 µM), the MIC ([3]; CIP107892, + SP (10% CF sputum)) was over 2 mg/L and the MIC ([3]; CIP107892, absence of sputum) was 0.5 mg/L (≈ 1.06 µM). It also gave an MIC ([4]; B18104072, + SP (10% CF sputum)) of over 2 mg/L, an MIC ([4]; B18104072, absence of sputum) of 1 mg/L (≈ 2.11 µM) and an MIC ([5]; B12052284, + SP (10% CF sputum)) of over 2 mg/L. The MIC ([5]; B12052284, absence of sputum) was 2 mg/L (≈ 4.22 µM), the MIC ([6]; DSM43223, + SP (10% CF sputum)) was over 2 mg/L and the MIC ([6]; DSM43223, absence of sputum) was 1 mg/L (≈ 2.11 µM). The “absorption after oral administration” value [7] was 45-62%, the solubility in water [8] was “practically insoluble in water” and the MIC ([9]; ATCC700898, + SP (10% CF sputum)) was over 2 mg/L. For the same compound, the MIC ([9]; ATCC700898, absence of sputum) was 0.25 mg/L (≈ 0.528 µM), the MIC ([10]; CIP104536, + SP (10% CF sputum)) was over 2 mg/L and the MIC ([10]; CIP104536, absence of sputum) was 0.25 mg/L (≈ 0.528 µM).
